According to patent US20120196933A1, “MEXILETINE PRODRUGS” (priority 2010, published 2012):
Values joined by “and” are separate entries in the source; they are usually repeats but may differ in a detail not shown here. Identical values can stand only once. Counter-ions that a name gives are not always drawn. Like-named read-outs stand apart in the source and are kept apart here. Marks after values point to notes of the source that are not given here.

Experiments:
[1] = Systemic availability of mexiletine in the dog from mexiletine prodrugs (oral gavage); type: in vivo; details: for AUC of mexiletine / Cmax of mexiletine / T50% Cmax / F(rel): 1 mg/kg mexiletine free base; for AUC of mexiletine / Cmax of mexiletine / T50% Cmax: plasma mexiletine; for F(rel): relative to mexiletine
Protocol: Test substances (i.e., mexiletine, and various mexiletine amino acid prodrugs) were administered by oral gavage to groups of two or some cases five dogs. The characteristics of the test animals are set out in Table 6.
Blood samples were taken at various times after administration and submitted to analysis for parent drug using a validated LC-MS-MS assay. Pharmacokinetic parameters derived from the plasma bioanalytical data were determined using Win Nonlin.

[2] = Systemic availability of mexiletine in the cynomolgus monkey from mexiletine prodrugs (oral gavage); type: in vivo; details: 1 mg/kg mexiletine free base; for AUC of mexiletine / Cmax of mexiletine / T50% Cmax: plasma mexiletine; for F(rel): relative to mexiletine
Protocol: Test substances (i.e., mexiletine, and various mexiletine amino acid prodrugs) were administered by oral gavage to groups of two and, in one case, five male cynomolgus monkeys. Blood samples were taken at various times after administration and submitted to analysis for the parent drug using a validated LC-MS-MS assay. Pharmacokinetic parameters derived from the plasma bioanalytical data were determined using Win Nonlin.

[3] = In vitro stability of mexiletine prodrugs under conditions prevailing in the gut; type: physicochemical; details: HPLC; for Simulated gastric fluid (pH 1.1): % remaining after 2 h/37° C.: simulated gastric fluid pH 1.1, 2 h; for Simulated intestinal fluid (pH 6.8): % remaining after 2 h/37° C.: simulated intestinal fluid pH 6.8, 2 h
Protocol: To investigate if the prodrugs of the present invention are stable in conditions mimicking the gut, various mexiletine amino acid prodrugs were incubated at 37° C. in simulated gastric and simulated intestinal juice (USP defined composition) for 2 hours. The remaining concentrations of the prodrug were then assayed by HPLC.

[4] = as above; type: physicochemical; details: 0.1M phosphate buffer pH 7.4, 2 h
[5] = system: rabbit stomach smooth muscle; assay: Electrical field stimulated contractions of isolated rabbit stomach smooth muscle; type: cell-based; details: rabbit stomach antrum strips, EFS 14 Hz, read-out: ED50 for attenuation of EFS induced contractions
ferret = assay: Emetic effects following oral administration to the ferret; type: in vivo; details: oral 20 mg/kg mexiletine HCl or molar equivalent, individual animals
Excerpt: Male ferrets (n=7) were allowed free access to pelleted diet until late afternoon on the day prior to the day of each test. The food was then removed and the ferrets were starved overnight. Food was not returned until after completion of the emetic observation.

[6] = oral, cited from earlier work
[7] = system: patients with myotonic disorders; details: 1200 mg daily tocamide or 600 mg daily mexiletine, three divided doses; cited from earlier work
[8] = listed as Mexiletine lysine amide

## Cc1cccc(C)c1OCC(C)NC(=O)C(N)CN (stereo not drawn)
[1]
  AUC of mexiletine: 8371 ng·h/mL
  Cmax of mexiletine: 103 ng/mL
  T50% Cmax: 10.0 h
  F(rel): 77.9%
[2]
  AUC of mexiletine: 801 ng·h/mL
  Cmax of mexiletine: 82.7 ng/mL
  T50% Cmax: 7.88 h
  F(rel): 116%

## Cc1cccc(C)c1OCC(C)NC(=O)C(N)CCCNC(=N)N(C)C.Cl.Cl (mixture of isomers) [Mexiletine-(S)—N,N-Dimethylarginine Amide Dihydrochloride]
[3]
  Simulated gastric fluid (pH 1.1): % remaining after 2 h/37° C.: 99.7%
  Simulated intestinal fluid (pH 6.8): % remaining after 2 h/37° C.: 96.8%
[4]
  pH 7.4, 37° C. 0.1M phosphate buffer: % remaining after 2 h/37° C.: 99.6%

## Cc1cccc(C)c1OCC(C)NC(=O)[C@@H](N)CCCCN.O=C(O)C(F)(F)F.O=C(O)C(F)(F)F (mixture of isomers) [Mexiletine (S)-lysine amide, (Rac)-Mexiletine-(S)-Lysine Ditrifluoroacetate]
[3]; [8]
  Simulated gastric fluid (pH 1.1): % remaining after 2 h/37° C.: 99.8% and 100%
  Simulated intestinal fluid (pH 6.8): % remaining after 2 h/37° C.: 80.8% and 100%
[1]
  AUC of mexiletine: 301** ng · h/mL
  Cmax of mexiletine: 54.4** ng/mL
  T50% Cmax: 5.0** h
  F(rel): 28.0** %
[5]
  EC50: 21.8 µM
[4]
  pH 7.4, 37° C. 0.1M phosphate buffer: % remaining after 2 h/37° C.: 100%

## Cc1cccc(C)c1OCC(C)NC(=O)CN.O=C(O)C(F)(F)F (racemic) [Mexiletine glycine amide, Glycine-(rac)-mexiletine Trifluoroacetate]
[3]
  Simulated gastric fluid (pH 1.1): % remaining after 2 h/37° C.: 99.8%
  Simulated intestinal fluid (pH 6.8): % remaining after 2 h/37° C.: 99.8%
[1]
  T50% Cmax: 5.5** h
[2]
  T50% Cmax: 3.71** h
[5]; Oryctolagus cuniculus
  EC50: 9.16 µM
ferret; 2 h observation
  Total number of individual incidences of retching: 20 (2×) and 2 (2×) and 12 and 0 and 10
  Total number of individual incidences of vomiting: 5 and 1 (2×) and 2 and 0 (2×) and 3
ferret
  Time to onset of retching: 15 min (2×) and 13 min (2×) and 11 min and >120 min and 10 min
  Time to onset of vomiting: 17 min and 13 min (2×) and 11 min and >120 min (2×) and 15 min
[4]
  pH 7.4, 37° C. 0.1M phosphate buffer: % remaining after 2 h/37° C.: 99.9%

## CNC(=N)NCCC[C@H](N)C(=O)NC(C)COc1c(C)cccc1C (stereo partly drawn) [Mexiletine (S)-N-methylarginine amide, Mexiletine-(S)—N-Methylarginine Amide Dihydrochloride]
[3]
  Simulated gastric fluid (pH 1.1): % remaining after 2 h/37° C.: 99.8%
  Simulated intestinal fluid (pH 6.8): % remaining after 2 h/37° C.: 93.6%
[4]
  pH 7.4, 37° C. 0.1M phosphate buffer: % remaining after 2 h/37° C.: 99.9%

## Cc1cccc(C)c1OCC(C)NC(=O)[C@@H](N)CC[S+](C)C (stereo partly drawn) [Mexiletine S-methyl-methionine chloride, Mexiletine-[(S)—S-Methyl-Methionine Chloride] Amide Hydrochloride]
[3]
  Simulated gastric fluid (pH 1.1): % remaining after 2 h/37° C.: 99.2%
  Simulated intestinal fluid (pH 6.8): % remaining after 2 h/37° C.: 99.4%
[1]
  T50% Cmax: 5.92 h
[2]
  T50% Cmax: 5.99 h
[4]
  pH 7.4, 37° C. 0.1M phosphate buffer: % remaining after 2 h/37° C.: 99.8%

## Cc1cccc(C)c1OCC(C)NC(=O)[C@@H](N)C[S+](C)[O-].O=C(O)C(F)(F)F (stereo partly drawn) [Mexiletine [(R)-S-methyl-cysteine, Mexiletine [(R)—S-Methyl-Cysteine Sulfoxide] Amide Trifluoroacetate]
[1]
  AUC of mexiletine: 144 ng·h/mL
  Cmax of mexiletine: 59.9 ng/mL
  T50% Cmax: 1.63 h
  F(rel): 13.4%
[2]
  AUC of mexiletine: 432 ng·h/mL
  Cmax of mexiletine: 62.2 ng/mL
  T50% Cmax: 4.80 h
[2]; listed as Mexiletine methyl-cysteine sulfoxide amide, 1 mg/kg
  F(rel): 62.6%

## CC(=O)N[C@@H](CCCCN)C(=O)NC(C)COc1c(C)cccc1C.Cl (stereo partly drawn) [Mexiletine [(S)-N^α-acetyl-lysine] amide, Mexiletine [(S)—N^α-Acetyl-Lysine] Amide Hydrochloride]
[1]
  AUC of mexiletine: 893 ng·h/mL
  Cmax of mexiletine: 90.8 ng/mL
  T50% Cmax: 8.08 h
[1]; listed as Mexiletine α acetyl lysine amide, Hydrochloride, 1 mg/kg
  F(rel): 83.1%
[2]
  AUC of mexiletine: 363 ng·h/mL
  Cmax of mexiletine: 30.3 ng/mL
  T50% Cmax: 8.98 h
[2]; Hydrochloride, 1 mg/kg
  F(rel): 60%
[2]; listed as Mexiletine acetyl Lysine amide, Hydrochloride, 1 mg/kg
  F(rel): 52.6%

## Cc1cccc(C)c1OCC(C)NC(=O)[C@@H](N)C(C)(C)O (stereo partly drawn) [Mexiletine [^α-hydroxy-(5)-valine] amide, Mexiletine [β-hydroxy-(S)-valine] amide]
[1]
  Cmax of mexiletine: 1.68 ng/mL
[2]
  Cmax of mexiletine: BLQ

## Cc1cccc(C)c1OCC(C)NC(=O)C(N)CCCNC(=N)N (stereo not drawn) [Mexiletine arginine amide]
[1]
  T50% Cmax: 6.5** h
[2]
  T50% Cmax: 4.48 h

## Cc1cccc(C)c1OCC(C)NC(=O)C(N)CCCNC(N)=O (stereo not drawn) [Mexiletine citrulline amide]
[1]
  T50% Cmax: 3.0** h

## Cc1cccc(C)c1OCC(C)NC(=O)C(N)C1CC1 (stereo not drawn) [Mexiletine cyclopropyl glycine amide]
[1]
  Cmax of mexiletine: 0.703 ng/mL
[2]
  Cmax of mexiletine: 0.895 ng/mL

## Cc1cccc(C)c1OCC(C)NC(=O)[C@@H](N)CCC(N)=O.Cl (stereo partly drawn) [Mexiletine glutamine amide]
[1]
  Bioavailability with respect to mexiletine: near complete
  AUC of mexiletine: 790 ng·h/mL
  Cmax of mexiletine: 117 ng/mL
  T50% Cmax: 5.60 h
  F(rel): 73.5%
[2]
  AUC of mexiletine: 649 ng·h/mL
  Cmax of mexiletine: 105 ng/mL
  T50% Cmax: 4.0 h
  F(rel): 94.1%

## Cc1cccc(C)c1OCC(C)NC(=O)[C@@H](N)CCCCN=C(N)N.Cl.Cl (stereo partly drawn) [Mexiletine homo arginine amide, Mexiletine-(S)-Homoarginine Amide Dihydrochloride]
[1]
  AUC of mexiletine: 563 ng·h/mL
  Cmax of mexiletine: 86.9 ng/mL
  T50% Cmax: 5.39 h
  F(rel): 52.4%
[2]
  AUC of mexiletine: 424 ng·h/mL
  Cmax of mexiletine: 56.8 ng/mL
  T50% Cmax: 5.13 h
  F(rel): 61.5%

## Cc1cccc(C)c1OCC(C)NC(=O)c1ccncc1 (stereo not drawn) [Mexiletine isonicotinic acid amide]
[1]
  Bioavailability with respect to mexiletine: negligible

## Cc1cccc(C)c1OCC(C)NC(=O)c1cccnc1 (stereo not drawn) [Mexiletine nicotinic acid amide]
[1]
  Bioavailability with respect to mexiletine: negligible
  Cmax of mexiletine: BLQ

## Cc1cccc(C)c1OCC(C)NC(=O)[C@@H](N)CCCN (stereo partly drawn) [Mexiletine ornithine amide, Mexiletine-(S)-Ornithine Amide Di-hydrochloride]
[3]
  Simulated gastric fluid (pH 1.1): % remaining after 2 h/37° C.: 99.7%
  Simulated intestinal fluid (pH 6.8): % remaining after 2 h/37° C.: 99.8%
[4]
  pH 7.4, 37° C. 0.1M phosphate buffer: % remaining after 2 h/37° C.: 99.5%

## Cc1cccc(C)c1OCC(C)NC(=O)[C@@H](N)Cc1ccccc1.Cl (stereo partly drawn) [Mexiletine phenylalanine amide, Mexiletine-(S)-Phenylalanine Amide Hydrochloride]
[1]
  T50% Cmax: 3.5** h

## Cc1cccc(C)c1OCC(C)NC(=O)C(N)CO (stereo not drawn) [Mexiletine serine amide]
[1]
  T50% Cmax: 6.00 h
[2]
  T50% Cmax: 5.05 h

## Cc1cccc(C)c1OCC(C)NC(=O)[C@@H](N)C(C)C.Cl (stereo partly drawn) [Mexiletine valine amide, Mexiletine-(S)-Valine Amide Hydrochloride]
[3]
  Simulated gastric fluid (pH 1.1): % remaining after 2 h/37° C.: 98.7%
  Simulated intestinal fluid (pH 6.8): % remaining after 2 h/37° C.: 98.3%
[1]
  T50% Cmax: 5.0** h
[4]
  pH 7.4, 37° C. 0.1M phosphate buffer: % remaining after 2 h/37° C.: 98.8%

## Cc1cccc(C)c1OCC(C)NC(=O)[C@@H](NC(=O)[C@@H](N)C(C)C)C(C)C.Cl (stereo partly drawn) [Mexiletine valine-valine amide, Mexiletine-valine-valine Amide Hydrochloride]
[1]
  T50% Cmax: 4.25** h

## Cc1cccc(C)c1OCC(C)NC(=O)CCN (stereo not drawn) [Mexiletine β alanine amide]
[1]
  Cmax of mexiletine: BLQ
[2]
  Cmax of mexiletine: BLQ

## Cc1cccc(C)c1OCC(C)NC(=O)[C@@H](N)CC(=O)O (stereo partly drawn) [Mexiletine-(S)-aspartic acid amide, Mexiletine-(S)-Aspartic Acid Amide Hydrochloride]
[3]
  Simulated gastric fluid (pH 1.1): % remaining after 2 h/37° C.: 99.2%
  Simulated intestinal fluid (pH 6.8): % remaining after 2 h/37° C.: 99.9%
[4]
  pH 7.4, 37° C. 0.1M phosphate buffer: % remaining after 2 h/37° C.: 99.9%

## NCC1(CC(=O)O)CCCCC1 [gabapentin]
[6]; 900 mg/day gabapentin
  Bioavailability: approximately 60%
[6]; 1200 mg/day gabapentin
  Bioavailability: ~47%
[6]; 2400 mg/day gabapentin
  Bioavailability: ~34%
[6]; 3600 mg/day gabapentin
  Bioavailability: ~33%
[6]; 4800 mg/day gabapentin
  Bioavailability: ~27%

## Cc1cccc(C)c1NC(=O)C(C)N (stereo not drawn) [tocamide]
[7]
  Increase in the speed of stair step movement: 2.7 fold
  Reduction in the time taken for eye opening: 7 fold
  Reduction of hand opening time: 4.2 fold
